“And” between values parts separate entries of the source, which are not always exact repeats. Equal values may be shown once. Read-outs that look alike come from different tables or passages of the source.
Assays:
[1] = Plasma OT pharmacokinetics after intravenous, nasal spray or nebulizer administration (radioimmunoassay after extraction); format: in vivo, humans; parameters: Plasma OT Concentration, individual participants: unit not given here; conditions: for Plasma OT Concentration, individual participants: Condition IV (10 IU), source data of Fig. 6a; for Plasma OT Concentration, individual participants / Bioavailability, individual participants: unit not given; for Bioavailability, individual participants: source data of Fig. 6c, one row per participant; for AUC of plasmatic oxytocin post-dosing / Cmax: 40 IU OT; for AUC of plasmatic oxytocin post-dosing: trapezoidal rule, 120 min post-dosing; for Cmax: healthy men, plasma, radioimmunoassay, read-out: Cmax, maximum plasmatic concentration achieved after dosing
Description: For the intranasal administrations, participants self-administered a nominal dose of 40 IU OT (Syntocinon; 40IU/ml; Novartis, Basel, Switzerland), one of the highest clinically applicable doses. We have shown that 40IU delivered with a standard nasal spray induce robust rCBF changes in the human brain in a between-subjects, single-blind design study. For the intranasal administration, we used specially manufactured placebo that contained the same excipients as Syntocinon except for oxytocin.
The aerosol droplet size of three Syntocinon spray bottles was assessed by laser diffraction (Malvern Spraytec, Malvern Panalytical, Worcestershire, UK). The mass median diameter (MMD) of the aerosol plume was 37 ± 2.5 µm.
PARI SINUS nebulizer: Participants self-administered 40IU OT (Syntocinon) or placebo, by operating the SINUS nebulizer for 3 min in each nostril (6 min in total), according to instructions. The correct application of the device was confirmed by determining gravimetrically the administered volume. Participants were instructed to breathe using only their mouth and to keep a constant breath rate with their soft palate closed, to minimize delivery to the lungs. The PARI SINUS (PARI GmbH, Starnberg, Germany) is designed to deliver aerosolised drugs to the sinus cavities by ventilating the sinuses via pressure fluctuations. The SINUS nebulizer produces an aerosol with 3 µm MMD, which is superimposed with a 44 Hz pulsation frequency. […] The efficacy of this system was first shown in a scintigraphy study by ref. [76]. Since the entrance of the sinuses is located near the olfactory region, an improved delivery to the olfactory region was expected compared to nasal sprays. Other studies[32] have shown up to 9.0% (±1.9%) of the total administered dose to be delivered to the olfactory region, 15.7 (±2.4%) to the upper nose.
For the intravenous administration, we delivered 10IU OT (Syntocinon injection formulation, 10IU/ml, Alliance, UK) or saline via slow infusion over 10 min (1IU/min). A 50-ml syringe was loaded with either 32 ml of 0.9% sodium chloride (placebo) or 30 ml of 0.9% sodium chloride with […] of Syntocinon (10IU/ml). […] The ECG was monitored during the intravenous administration interval. We selected the intravenous dose and rate of administration to assure high plasmatic concentrations of OT throughout the observation period while restricting cardiovascular effects to tolerable and safe limits. A rate of 1IU per minute is typically used in caesarean sections and is considered to have minimised side effects[77],[78].
We collected plasma samples at baseline and at five timepoints post-dosing (as detailed in Fig. 1) to measure changes in the concentration of OT. Plasmatic OT was assayed by radioimmunoassay (RIAgnosis, Munich, Germany) after extraction, currently the gold-standard technique for OT quantifications in peripheral fluids. The detection limit of this assay is in the 0.5 pg/sample range. Cross-reactivity with vasopressin, ring moieties and terminal tripeptides of both OT and vasopressin and a wide variety of peptides comprising […] (alpha-melanocyte-stimulating hormone) up to 41 (corticotrophin-releasing factor) amino acids are <0.7% throughout. The intra- and inter-assay variabilities are <10%[80].
Pharmacokinetic analysis: From the plasmatic concentrations of OT at several timepoints after dosing we calculated the area under the curve (AUC) using the trapezoidal rule for each subject and session. AUC provides a single metric that reflects variations in plasma levels of OT concentration following OT/placebo administration for each session and each participant. […] Mean AUCs were compared between the three methods of administration with a repeated measures one-way analysis of variance, using the Greenhouse-Geisser correction against violations of sphericity. Post-hoc comparisons between methods were implemented using Tukey’s correction for multiple comparisons. […]

[2] = intravenous infusion of labelled synthetic OT; cited from earlier work
Description: (§1) With respect to changes in rCBF induced by the intravenous administration of OT, there may be three possible mediating mechanisms. First, it is possible that peripheral effects of OT on vegetative territories, such as the heart, may be an indirect source of changes in areas of the interoceptive/allostasis network in the human brain, where the dorsal amygdala and the pregenual anterior cingulate cortex assume the role of visceromotor hubs[43].

[3] = intraperitoneal administration, cited from earlier work
Description: as §1, with “hubs[43]. […] The delivery to the paranasal sinuses seems to be increased about 3-5x by using the aerosol pulsation deposition method implemented by the PARI sinus nebuliser(6, 7). The paranasal sinus mucosa is also innervated by the trigeminal nerve which is one of the pathways propo ...” for “hubs[43].”

[4] = cited from earlier work
Description: Human studies almost exclusively target the central OT system by administering synthetic OT using nasal sprays, despite a lack of understanding of the mechanisms underpinning its pharmacodynamic effects. […] The intranasal administration of OT has been favoured under the assumption that once in the nasal cavity, OT can reach the brain directly, bypassing the BBB[13]. […] The first mechanism po ...

Plasma OT Concentration, individual participants ([1]; Sample 2): 65.12 and 59.67 and 47.11
Plasma OT Concentration, individual participants ([1]; Sample 3): 68.1
Plasma OT Concentration, individual participants ([1]; Sample 4): 30.93 and 53.9
Plasma OT Concentration, individual participants ([1]; Sample 6): 12.86 and 20.71
Plasma OT Concentration, individual participants ([1]; Sample 7): 7.3 and 7.23 and 4.61
Plasma OT Concentration, individual participants ([1]; Sample 8): 3.77
Time of peak plasma concentration ([1]; Intravenous, 10 IU): at the end of dosing
Time of peak plasma concentration ([1]; Nasal spray, 40 IU): at the end of dosing
AUC of plasmatic oxytocin post-dosing ([1]; PARI SINUS nebulizer, mean (1 SEM)): 15.30 (2.14) pg.ml-1.h-1
AUC of plasmatic oxytocin post-dosing ([1]; Standard nasal spray, mean (1 SEM)): 15.70 (1.97) pg.ml-1.h-1
Cmax ([1]; human, in vivo, inhaled or intranasal, 40 IU, PARI SINUS nebulizer, mean (1 SEM)): 0.0163 ng/mL
Cmax ([1]; human, in vivo, inhaled or intranasal, 40 IU, Standard nasal spray, mean (1 SEM)): 0.0158 ng/mL
Tmax ([1]; human, in vivo, inhaled or intranasal, Nebulizer, 40 IU, post-dosing, read-out: Time of peak plasma concentration (converted)): ~15 min
bioavailability ([1]; human, in vivo, inhaled or intranasal, Standard nasal spray 40 IU, dose-corrected AUC intranasal / dose-corrected AUC intravenous, mean (1 SEM), read-out: Absolute bioavailability of oxytocin absorbed to the plasma): 10.6%
SMILES: CC[C@H](C)[C@@H]1NC(=O)[C@H](Cc2ccc(O)cc2)NC(=O)[C@@H](N)CSSC[C@@H](C(=O)N2CCC[C@H]2C(=O)N[C@@H](CC(C)C)C(=O)NCC(N)=O)NC(=O)[C@H](CC(N)=O)NC(=O)[C@H](CCC(N)=O)NC1=O [OT, oxytocin]
Bioavailability, individual participants ([1]; Nebuliser 40 IU): 31.90 and 10.30 and 3.30 and 7.94 and 12.67 and 62.94 and 5.39 and 6.53 and 8.236 and 4.17 and 6.07 and 5.20 and 6.82 and 10.22 and 6.95 and 32.80
Bioavailability, individual participants ([1]; Spray 40 IU): 6.85 and 11.96 and 5.38 and 16.81 and 5.32 and 6.16 and 8.93 and 4.67 and 8.4323 and 12.50 and 14.77 and 6.29 and 7.56 and 11.34 and 5.36 and 37.05
Synthetic OT levels in the CSF [2]: increased synthetic OT levels in the CSF
OT concentration in brain extracellular fluid ([3]; wild-type and OT knockout mice): increased the concentration of OT in the extracellular fluid in the amygdala and dorsal hippocampus
Time the concentration in amygdala extracellular fluid remains elevated ([3]; ref Smith et al. 2019): about 1 h
Time to reach the extracellular fluid in the amygdala ([3]; ref Smith et al. 2019): ≤ 30 min
Crossing of the blood-brain barrier [4]: unable to cross the blood-brain barrier (BBB) in significant amounts

— PMC7054359, “Effects of route of administration on oxytocin-induced changes in regional cerebral blood flow in humans” (Nature Communications, 2020)
